{
  "source": "patent US10031129B2",
  "about": "“G-protein coupled receptor polypeptides involved in sensory transduction” (The Regents of the University of California, priority 1998, dated 2018)",
  "key": {"[1]": {"biological_target": "T1, mammalian γ-opiod receptor (Homo sapiens, UniProt P35372)", "T1 construct": "expressed in transfected cells; host or cells: HEK-293 line expressing SV40 T-antigen; CMV-γ-opiod and TK-Gα15 constructs", "T1 sequence (P35372 whole entry)": "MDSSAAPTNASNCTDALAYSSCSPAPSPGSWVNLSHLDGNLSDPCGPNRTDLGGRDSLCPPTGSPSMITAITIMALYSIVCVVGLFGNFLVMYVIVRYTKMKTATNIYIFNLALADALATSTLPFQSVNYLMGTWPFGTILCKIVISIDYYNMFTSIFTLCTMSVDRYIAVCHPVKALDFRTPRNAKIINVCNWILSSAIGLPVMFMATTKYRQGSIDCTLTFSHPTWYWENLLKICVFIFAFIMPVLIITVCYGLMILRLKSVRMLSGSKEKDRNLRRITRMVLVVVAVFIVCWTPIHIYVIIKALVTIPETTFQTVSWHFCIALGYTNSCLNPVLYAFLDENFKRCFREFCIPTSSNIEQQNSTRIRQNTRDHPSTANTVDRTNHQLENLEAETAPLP", "assay": "ligand-induced changes in [Ca2+]i in control cells expressing γ-opiod/Gα15", "format": "cell-based", "settings": "HEK-293 control cells; dependent on Gα15; rapid onset", "source_text": "(§1) To determine the ligand selectivity of GPCR-B4, expression in heterologous cells was used. One issue for GPCR expression in heterologous cells is determining how to couple the GPCR to a G-protein and an appropriate signaling pathway. In this example, the G-protein subunit Gα15 was used, which promiscuously couples a wide range of GPCRs to the phospholipase C-mediated signaling pathway (Offermans & Simon, J. Biol. Chem. 270:15175-15180 (1995)). Consequently, receptor activity can be effectively measured by recording ligand-induced changes in [Ca^2+]i using fluorescent Ca^2+-indicator dyes and fluorometric imaging.\n(§2) To insure expression of GPCR-B4 in the plasma membrane, a variety of cell lines and expression vectors were tested. […] An HEK-293 line expressing SV40 T-antigen was co-transfected with a TK-Gα15, CMV-γ-opiod and a pEAK-10 episomal vector (Edge Biosystems) containing a EF1a-[B4-GPCR]construct. Transfection efficiencies were determined using CMV-GFP constructs."}, "GPCR-B4": {"biological_target": "T2, GPCR-B4 (Rattus norvegicus, UniProt Q9Z0R7)", "T2 construct": "expressed in transfected cells; host or cells: HEK-293 line expressing SV40 T-antigen; pEAK-10 episomal vector (Edge Biosystems) with EF1a-[B4-GPCR] construct; TK-Gα15", "T2 sequence (Q9Z0R7 20-843)": "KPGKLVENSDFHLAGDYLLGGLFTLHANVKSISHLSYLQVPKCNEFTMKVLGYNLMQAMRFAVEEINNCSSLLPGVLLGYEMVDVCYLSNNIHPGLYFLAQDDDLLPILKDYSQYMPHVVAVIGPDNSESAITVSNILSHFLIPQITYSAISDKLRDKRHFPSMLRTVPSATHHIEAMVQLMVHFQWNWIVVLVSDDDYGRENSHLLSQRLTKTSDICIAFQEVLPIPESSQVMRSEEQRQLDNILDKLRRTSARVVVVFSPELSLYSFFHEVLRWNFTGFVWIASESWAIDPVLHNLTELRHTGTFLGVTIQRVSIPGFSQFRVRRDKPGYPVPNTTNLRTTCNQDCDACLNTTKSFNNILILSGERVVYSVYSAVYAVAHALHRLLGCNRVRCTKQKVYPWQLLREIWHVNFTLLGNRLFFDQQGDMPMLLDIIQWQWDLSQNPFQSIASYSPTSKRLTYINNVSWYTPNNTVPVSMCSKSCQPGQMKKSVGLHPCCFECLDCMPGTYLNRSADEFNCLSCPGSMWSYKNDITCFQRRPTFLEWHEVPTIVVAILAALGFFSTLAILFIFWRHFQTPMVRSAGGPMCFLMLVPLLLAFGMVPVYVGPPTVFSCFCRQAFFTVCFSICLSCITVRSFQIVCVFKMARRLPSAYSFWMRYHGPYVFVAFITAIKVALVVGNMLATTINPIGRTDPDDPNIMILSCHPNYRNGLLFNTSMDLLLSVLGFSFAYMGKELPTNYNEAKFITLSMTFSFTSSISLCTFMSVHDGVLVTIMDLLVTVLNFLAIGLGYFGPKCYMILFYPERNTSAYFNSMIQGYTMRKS", "assay": "ligand-induced changes in [Ca2+]i in HEK-293 cells expressing B4/Gα15 (fluorescent Ca2+-indicator dyes, fluorometric imaging)", "format": "cell-based", "settings": "HEK-293 line expressing SV40 T-antigen; B4 receptor dependent", "source_text": "as §1, §2"}},
  "data": [
    {"smiles": "C[C@@H](NC(=O)[C@@H](N)Cc1ccc(O)cc1)C(=O)NCC(=O)N(C)[C@@H](Cc1ccccc1)C(=O)NCCO", "note": "[DAMGO]", "values": [
      {"measurement": "response (change in [Ca2+]i) of control cells expressing γ-opiod/Gα15", "setting": "[1]", "result": "respond robustly"}
    ]},
    {"smiles": "NC(=S)Nc1ccccc1", "note": "[PTC, phenylthiocarbamide]", "values": [
      {"measurement": "response (change in [Ca2+]i) of cells expressing B4/Gα15 or B4/Gα15/γ-opiod", "setting": "GPCR-B4", "result": "respond"}
    ]}
  ]
}
